Read-outs that look alike come from different tables or passages of the source. Marks after values point to notes of the source that are not given here.
Experiment: Plasma pharmacokinetics of Compound 1 in patients with advanced solid tumor malignancies and TGCT
Type: in vivo, human
Settings: for Cmax / AUC(0-t) / Tmax: human, plasma, oral; for Tmax: Median (Min, Max)
Experimental: PK analysis was conducted on all 38 patients. Serial blood samples were collected for PK and took place on either Day −7, Cycle 1, Day 1 (C1D1) and C2D1 at pre-dose, 0.5, 1, 2, 4, 6, 8, 10-12, and 24 hr time points or Day −7, C1D1, C1D8, and C2D1 at pre-dose, 1, 2, 4, 6, and 8 hr time points, or C1D1, C1D8, and C2D1 at pre-dose, 1, 2, 4, 6, and 8 hr time points. High fat meal was given prior to dosing of Compound 1 on Day −7. PD effects were measured by two methodologies: 1) depletion of CSF1R-expressing monocytes in peripheral blood (Cohorts 1-7) from C1D1, C1D15 and C2D1; and 2) increase of plasma levels of CSF1 and IL-34, the ligands for CSF1R (Cohorts 1-7) on C1D1, C1D15, and C2D1. For the CD16^+ monocyte assay, whole blood collected in an EDTA vacutainer was aliquoted into tubes and incubated with fluorescently-labeled antibodies (CD14-Alexa488 (BD Pharmingen); CD16-PE-Cy7 (BD Pharmingen); and TIE2-APC (R&D Systems). After incubation, red blood cells were lysed, and the remaining cells were washed several times before being analyzed on a flow cytometer. For the plasma CSF1 assay or IL-34, whole blood collected in an EDTA vacutainer was centrifuged, and the plasma was collected and frozen. Plasma levels of CSF1 or IL-34 were measured using a commercial ELISA kit (R&D Systems).
Cohort 1 had daily dosing.

## Cc1nc(-c2cnc(NC(C)C)n(C)c2=O)ccc1Oc1ccnc(-c2cnn(C)c2)c1 [Compound 1, 2-(isopropylamino)-3-methyl-5-(6-methyl-5-((2-(1-methyl-1H-pyrazol-4-yl)pyridin-4-yl)oxy)pyridin-2-yl)pyrimidin-4(3H)-one]
Cohort 1 10 mg QD, C1D8, Geo Mean
  Ctrough: 331 ng/mL
Cohort 1 10 mg QD, C2D1, Geo Mean
  Ctrough: 447^c ng/mL
Cohort 2 10 mg QD x 5 d, BIW maintenance dose, C1D8, Geo Mean
  Ctrough: 184 ng/mL
Cohort 2 10 mg QD x 5 d, BIW maintenance dose, C2D1, Geo Mean
  Ctrough: 122 ng/mL
Cohort 2 10 mg Twice Weekly after 5-day QD loading dose, C2D1, GM (CV %)
  AUC0-8: 1030 (63) hr*ng/mL
Cohort 3 20 mg QD x 5 d, QW maintenance dose, C1D8, Geo Mean
  Ctrough: 850 ng/mL
Cohort 3 20 mg QD x 5 d, QW maintenance dose, C2D1, Geo Mean
  Ctrough: 205 ng/mL
Cohort 3 20 mg Weekly after 5-day QD loading dose, C2D1, GM (CV %)
  AUC0-8: 3380 ng·h/mL
Cohort 4 20 mg QD x 5 d, BIW maintenance dose, C1D8, Geo Mean
  Ctrough: 483 ng/mL
Cohort 4 20 mg QD x 5 d, BIW maintenance dose, C2D1, Geo Mean
  Ctrough: 441 ng/mL
Cohort 4 20 mg Twice Weekly after 5-day QD loading dose, C2D1, GM (CV %)
  AUC0-8: 4300 (2.82) hr*ng/mL
Cohort 5 30 mg QD x 5 d, BIW maintenance dose, C1D8, Geo Mean
  Ctrough: 1020 ng/mL
Cohort 5 30 mg QD x 5 d, BIW maintenance dose, C2D1, Geo Mean
  Ctrough: 574 ng/mL
Cohort 5 30 mg Twice Weekly after 5-day QD loading dose, C2D1, GM (CV %)
  AUC0-8: 4750 (53.2) hr*ng/mL
Cohort 6 30 mg QD x 5 d, BIW maintenance dose (so in the source), C2D1, Geo Mean
  Ctrough: 570 ng/mL
Cohort 6 40 mg Twice Weekly after 5-day QD loading dose, C2D1, GM (CV %)
  AUC0-8: 7290 (28.1) hr*ng/mL
Cohort 7 20 mg QD after 3-day 50 mg QD loading dose, C2D1, GM (CV %)
  AUC0-8: 5580 (86.8) hr*ng/mL
Cohort 7 50 mg QD x 3 d, QD maintenance dose, C2D1, Geo Mean
  Ctrough: 1040 ng/mL
10 mg, Cohort 1 10 mg QD, C1D1, GM (CV %)
  Cmax: 155 ng/mL
10 mg, Cohort 1 10 mg QD, C1D1, GM (CV %), read-out: AUC0-8
  AUC(0-t): 770 ng·h/mL
10 mg, Cohort 1 10 mg QD, C1D1, Geo Mean
  Cmax: 155 ng/mL
10 mg, Cohort 1 10 mg QD, C1D1, Geo Mean, read-out: AUC0-8 h
  AUC(0-t): 770 ng·h/mL
10 mg, Cohort 1 10 mg QD, C1D1
  Tmax: 1 h
10 mg, Cohort 1 10 mg QD, C2D1, GM (CV %)
  Cmax: 767 ng/mL
10 mg, Cohort 1 10 mg QD, C2D1, GM (CV %), read-out: AUC0-8
  AUC(0-t): 4510 ng·h/mL
10 mg, Cohort 1 10 mg QD, C2D1, Geo Mean
  Cmax: 767 ng/mL
10 mg, Cohort 1 10 mg QD, C2D1, Geo Mean, read-out: AUC0-8 h
  AUC(0-t): 4470 ng·h/mL
10 mg, Cohort 1 10 mg QD, C2D1
  Tmax: 0.5 h
10 mg, Cohort 1 10 mg QD, Day -7, Geo Mean
  Cmax: 75.9 ng/mL
10 mg, Cohort 1 10 mg QD, Day -7, Geo Mean, read-out: AUC0-8 h
  AUC(0-t): 429 ng·h/mL
10 mg, Cohort 1 10 mg QD, Day-7, GM (CV %)
  Cmax: 75.9 ng/mL
10 mg, Cohort 1 10 mg QD, Day-7, GM (CV %), read-out: AUC0-8
  AUC(0-t): 425 ng·h/mL
10 mg, Cohort 2 10 mg QD x 5 d, BIW maintenance dose, C1D1, Geo Mean
  Cmax: 168 ng/mL
10 mg, Cohort 2 10 mg QD x 5 d, BIW maintenance dose, C1D1, Geo Mean, read-out: AUC0-8 h
  AUC(0-t): 1080 ng·h/mL
10 mg, Cohort 2 10 mg QD x 5 d, BIW maintenance dose, C1D8, Geo Mean
  Cmax: 248 ng/mL
10 mg, Cohort 2 10 mg QD x 5 d, BIW maintenance dose, C1D8, Geo Mean, read-out: AUC0-8 h
  AUC(0-t): 1730 ng·h/mL
10 mg, Cohort 2 10 mg QD x 5 d, BIW maintenance dose, C2D1, Geo Mean
  Cmax: 149 ng/mL
10 mg, Cohort 2 10 mg QD x 5 d, BIW maintenance dose, C2D1, Geo Mean, read-out: AUC0-8 h
  AUC(0-t): 1030 ng·h/mL
10 mg, Cohort 2 10 mg QD x 5 d, BIW maintenance dose, Day -7, Geo Mean
  Cmax: 119 ng/mL
10 mg, Cohort 2 10 mg QD x 5 d, BIW maintenance dose, Day -7, Geo Mean, read-out: AUC0-8 h
  AUC(0-t): 781 ng·h/mL
10 mg, Cohort 2 10 mg Twice Weekly after 5-day QD loading dose, C1D1, GM (CV %)
  Cmax: 94 ng/mL
10 mg, Cohort 2 10 mg Twice Weekly after 5-day QD loading dose, C1D1, GM (CV %), read-out: AUC0-8
  AUC(0-t): 467 ng·h/mL
10 mg, Cohort 2 10 mg Twice Weekly after 5-day QD loading dose, C1D8, GM (CV %)
  Cmax: 248 ng/mL
10 mg, Cohort 2 10 mg Twice Weekly after 5-day QD loading dose, C1D8, GM (CV %), read-out: AUC0-8
  AUC(0-t): 1730 ng·h/mL
10 mg, Cohort 2 10 mg Twice Weekly after 5-day QD loading dose, C1D8
  Tmax: 1 h
10 mg, Cohort 2 10 mg Twice Weekly after 5-day QD loading dose, C2D1, GM (CV %)
  Cmax: 149 ng/mL
10 mg, Cohort 2 10 mg Twice Weekly after 5-day QD loading dose, C2D1, GM (CV %), read-out: AUC0-8
  AUC(0-t): 1030 ng·h/mL
10 mg, Cohort 2 10 mg Twice Weekly after 5-day QD loading dose, C2D1
  Tmax: 1 h
10 mg, Cohort 2 10 mg Twice Weekly after 5-day QD loading dose, Day-7, GM (CV %)
  Cmax: 80.2 ng/mL
10 mg, Cohort 2 10 mg Twice Weekly after 5-day QD loading dose, Day-7, GM (CV %), read-out: AUC0-8
  AUC(0-t): 353 ng·h/mL
20 mg, Cohort 3 20 mg QD x 5 d, QW maintenance dose, C1D1, Geo Mean
  Cmax: 466 ng/mL
20 mg, Cohort 3 20 mg QD x 5 d, QW maintenance dose, C1D1, Geo Mean, read-out: AUC0-8 h
  AUC(0-t): 2510 ng·h/mL
20 mg, Cohort 3 20 mg QD x 5 d, QW maintenance dose, C1D8, Geo Mean
  Cmax: 1160 ng/mL
20 mg, Cohort 3 20 mg QD x 5 d, QW maintenance dose, C1D8, Geo Mean, read-out: AUC0-8 h
  AUC(0-t): 7410 ng·h/mL
20 mg, Cohort 3 20 mg QD x 5 d, QW maintenance dose, C2D1, Geo Mean
  Cmax: 530 ng/mL
20 mg, Cohort 3 20 mg QD x 5 d, QW maintenance dose, C2D1, Geo Mean, read-out: AUC0-8 h
  AUC(0-t): 3380 ng·h/mL
20 mg, Cohort 3 20 mg QD x 5 d, QW maintenance dose, Day -7, Geo Mean
  Cmax: 242 ng/mL
20 mg, Cohort 3 20 mg QD x 5 d, QW maintenance dose, Day -7, Geo Mean, read-out: AUC0-8 h
  AUC(0-t): 1320 ng·h/mL
20 mg, Cohort 3 20 mg Weekly after 5-day QD loading dose, C1D1, GM (CV %)
  Cmax: 466 ng/mL
20 mg, Cohort 3 20 mg Weekly after 5-day QD loading dose, C1D1, GM (CV %), read-out: AUC0-8
  AUC(0-t): 2510 ng·h/mL
20 mg, Cohort 3 20 mg Weekly after 5-day QD loading dose, C1D1
  Tmax: 1 h
20 mg, Cohort 3 20 mg Weekly after 5-day QD loading dose, C1D8, GM (CV %)
  Cmax: 1160 ng/mL
20 mg, Cohort 3 20 mg Weekly after 5-day QD loading dose, C1D8, GM (CV %), read-out: AUC0-8
  AUC(0-t): 7290 ng·h/mL
20 mg, Cohort 3 20 mg Weekly after 5-day QD loading dose, C1D8
  Tmax: 1 h
20 mg, Cohort 3 20 mg Weekly after 5-day QD loading dose, C2D1, GM (CV %)
  Cmax: 530 ng/mL
20 mg, Cohort 3 20 mg Weekly after 5-day QD loading dose, C2D1, GM (CV %), read-out: AUC0-8
  AUC(0-t): 3380 ng·h/mL
20 mg, Cohort 3 20 mg Weekly after 5-day QD loading dose, C2D1
  Tmax: 1 h

From patent US11679110B2, “Methods of treating disorders using CSF1R inhibitors” (Deciphera Pharmaceuticals, LLC, priority 2018, dated 2023)
